{"source": "patent US8097585B2", "about": "“Methods of treating inflammation by administration of heme oxygenase-1 and products of heme degradation” (priority 2002, dated 2012)", "key": {"[1]": {"tested_on": "IL-2 receptor α-chain (IL-2Rα, CD25)", "assay": "Flow cytometric analysis of IL-2R (CD25) expression", "assay_type": "cell-based, mouse", "conditions": "biliverdin 100 μM, anti-CD3 mAb stimulated, 6 and 24 hours", "method": "Flow cytometric analysis (IL-2R expression). B6AF1 leukocytes (5×10^5 cells/well) were stimulated with anti-CD3 mAb (1 μg/ml) and cultured in 96 well round bottom plates with or without biliverdin (100 μM). Six and 24 hours after stimulation, cells were harvested, washed, and stained with fluorochrome conjugated isotype control Abs, or specific anti-CD4 and/or anti-CD25 mAbs (all antibodies obtained from BD Pharmingen). Non-stimulated naïve leukocytes were used as a negative control. Following Abs staining, cell samples were analyzed using a FACSort™ flow cytometer and CellQuest™ software (BD Biosciences, Palo Alto, Calif.). Ten thousand CD4+ T cells were acquired for each sample and their CD25 expression was examined. The experiment was repeated 3 times."}, "[2]": {"tested_on": "MPO positive cells in intestinal muscularis", "assay": "Leukocyte recruitment into intestinal muscularis (MPO histochemistry)", "assay_type": "in vivo, LEW rats", "method": "(§1) Small Intestinal Transplantation. Orthotopic small intestinal transplantation (SITx) was performed in syngeneic Lewis rats. SITx with caval drainage was performed using a previously described procedure (Murase et al., in Handbook of Animal Models in Transplantation Research, Cramer et al., Eds. CRC Press, Boca Raton, Fla., pp. 203-213 (1994)). […] The graft was perfused via the aortic segment with 5 ml chilled Ringer's lactate solution, and the intestinal lumen was irrigated with 20 ml of cold saline solution containing 0.5% neomycin-sulfate (Sigma, St. Louis, Mo.). End-to-side anastomoses between the graft aorta and the recipient infrarenal aorta, and between the graft portal vein and recipient vena cava, were performed with 10-0 Novafil™ suture. The cold ischemic time was 1 hour. The entire recipient intestine was removed and the enteric continuity was restored by proximal and distal end-to-end intestinal anastomoses. Recipient animals were given 20 mg/day prophylactic cefamandole nafate for 3 postoperative days. Transplanted recipients were given water 3 hours after surgery, and were fed 24 hours after surgery.\nLeukocyte Recruitment. […] Myeloperoxidase (MPO) activity, as determined by Hanker-Yates histochemistry, was used to quantify the polymorphonuclear neutrophil (PMN) infiltrate in tissues from control and transplanted animals, with and without BV treatment. […]"}, "IL-6": {"tested_on": "IL-6", "assay": "Real time RT-PCR of graft muscularis after SITx, IL-6", "assay_type": "in vivo, LEW rats", "method": "as §1\n(§2) SYBR green real time RT-PCR. The effects of administration of biliverdin on transplant-induced pro-inflammatory and anti-inflammatory gene expression were assessed in muscularis extracts by RT-PCR Biliverdin ([…], i.p.) was administered to both the donor and recipient three hours preoperatively. The muscularis externae was collected from normal intestine and transplanted grafts 4 hours postoperatively and snap frozen in liquid nitrogen. […] Equal aliquots (5 μg) of total RNA from each sample were quantified by spectrophotometry (wavelength […]) and aliquoted at a concentration of 40 ng/μl. Peak mRNA expression was quantified in duplicate by SYBR Green two-step, real-time RT-PCR. […] Real-time PCR data were plotted as the ΔRn fluorescence signal versus the cycle number. […] Quantification of mRNA expression was normalized to GAPDH and calculated relative to control using the comparative CT method (Schmittgen et al., J. Biochem. Biophys. Methods 46(1-2):69-8, 2000). […]"}, "MnSOD": {"tested_on": "MnSOD", "assay": "Real time RT-PCR of graft muscularis after SITx, MnSOD", "assay_type": "in vivo, LEW rats", "conditions": "BV treatment", "method": "Small Intestinal Transplantation. Orthotopic small intestinal transplantation (SITx) was performed in syngeneic Lewis rats. SITx with caval drainage was performed using a previously described procedure (Murase et al., in Handbook of Animal Models in Transplantation Research, Cramer et al., Eds. CRC Press, Boca Raton, Fla., pp. 203-213 (1994)). […] The graft was perfused via the aortic segment with 5 ml chilled Ringer's lactate solution, and the intestinal lumen was irrigated with 20 ml of cold saline solution containing 0.5% neomycin-sulfate (Sigma, St. Louis, Mo.). […]\nas §2, with “preoperatively.” for “preoperatively. The muscularis externae was collected from normal intestine and transplanted grafts 4 hours postoperatively and snap frozen in liquid nitrogen.”"}, "intestinal graft": {"tested_on": "intestinal graft", "assay": "Intestinal microvascular blood flow (laser Doppler)", "assay_type": "in vivo, LEW rats", "conditions": "BV", "method": "Measurement of Intestinal Blood Flow. Intestinal microvascular blood flow was monitored by placing the flat probe of a laser Doppler flowmeter (BLF 21D, Transonic Systems, Ithaca, N.Y.) on the serosal surface of the graft jejunum and ileum adjacent to the mesenteric border. Blood flows in SMA and marginal artery (MA) were also analyzed.\nMeasurement of Intestinal Blood Flow. Microvascular blood flow for in grafts preserved for 6 hours was measured using a laser Doppler flowmeter (BLF 21D, Transonic Systems, Ithaca, N.Y.) equipped with a flat probe. Intestinal microvascular blood flow was monitored by placing the probe on the serosal surface of the graft jejunum and ileum adjacent to the mesenteric border."}}, "note": "Counter-ions that a name gives are not always drawn."}
{"smiles": "C=CC1=C(C)/C(=C/C2=NC(=C\\c3[nH]c(/C=C4\\NC(=O)C(C)=C4C=C)c(C)c3CCC(=O)O)/C(CCC(=O)O)=C2C)NC1=O", "note": "[biliverdin, biliverdin dihydrochloride]", "values": [{"measurement": "expression of IL-2Rα (CD25) on splenic CD4+ T cells", "setting": "[1]", "result": "did not affect"}, {"measurement": "mean number of MPO positive cells", "setting": "[2]; 24 hours after SITx", "result": "significantly decreased"}, {"measurement": "MPO positive cells", "setting": "[2]; BV injection into normal animals", "result": "3.9±1.3", "unit": "cells per ×200 field"}, {"measurement": "reduction of IL-6 mRNA expression", "setting": "IL-6; BV 50 mmol/kg i.p. donor and recipient, 4 hours, versus saline-treated graft", "result": 24, "unit": "%"}, {"measurement": "basal mRNA expression of any of the cytokines", "setting": "IL-6; BV treatment of unoperated animals", "result": "did not alter"}, {"measurement": "MnSOD expression in the graft", "setting": "MnSOD", "result": "significantly reduced"}, {"measurement": "microvascular blood flow following transplantation", "setting": "intestinal graft", "result": "had no effect"}]}
